Measurements reported in US20090270407A1, “FUNGICIDAL ISOXAZOLIDINES” (E. I. DU PONT DE NEMOURS AND COMPANY, priority 2008, published 2009).
Marks after values point to notes of the source that are not given here.

Key:
Settings in all cases: 100 = 100 % disease control, 0 = no disease control relative to controls
Septoria tritici = assay: Test D: wheat leaf blotch, preventive spray on wheat seedlings, visual disease rating; assay type: in vivo
Source text: A dash (−) indicates no test results.

[1] = system: Puccinia recondita f. sp. tritici; assay: Test B: wheat leaf rust, preventive spray on wheat seedlings, visual disease rating
Botrytis cinerea = assay: Test E: tomato Botrytis, preventive spray on tomato seedlings, visual disease rating
Source text: General protocol for preparing test suspensions for Tests A-I: The test compounds were first dissolved in acetone in an amount equal to 3% of the final volume and then suspended at the desired concentration (in ppm) in acetone and purified water (50/50 mix) containing 250 ppm of the surfactant Trem® 014 (polyhydric alcohol esters). The resulting test suspensions were then used in Tests A-I. Spraying a 200 ppm test suspension to the point of run-off on the test plants was the equivalent of a rate of 500 g/ha.
The test suspension was sprayed to the point of run-off on tomato seedlings. The following day the seedlings were inoculated with a spore suspension of Botrytis cinerea (the causal agent of tomato Botrytis) and incubated in saturated atmosphere at 20° C. for 48 h, and then moved to a growth chamber at 24° C. for 3 additional days, after which time visual disease ratings were made.
All results are for 200 ppm except where followed by “*” which indicates 40 ppm.

Septoria nodorum = assay: Test C: wheat glume blotch, preventive spray on wheat seedlings, visual disease rating
[2] = system: Erysiphe graminis f. sp. tritici; assay: Test A: wheat powdery mildew, preventive spray on wheat seedlings, visual disease rating
Alternaria solani = assay: Test F: tomato early blight, preventive spray on tomato seedlings, visual disease rating
Source text: General protocol for preparing test suspensions for Tests A-I: The test compounds were first dissolved in acetone in an amount equal to 3% of the final volume and then suspended at the desired concentration (in ppm) in acetone and purified water (50/50 mix) containing 250 ppm of the surfactant Trem® 014 (polyhydric alcohol esters). The resulting test suspensions were then used in Tests A-I. Spraying a 200 ppm test suspension to the point of run-off on the test plants was the equivalent of a rate of 500 g/ha. (An asterisk “*” next to the rating value indicates a 40 ppm test suspension.)
The test suspension was sprayed to the point of run-off on tomato seedlings. The following day the seedlings were inoculated with a spore suspension of Alternaria solani (the causal agent of tomato early blight) and incubated in a saturated atmosphere at 27° C. for 48 h, and then moved to a growth chamber at 20° C. for 5 days, after which time visual disease ratings were made.
A dash (−) indicates no test results. All results are for 200 ppm except where followed by “*” which indicates 40 ppm.

| SMILES | Test D disease control rating (Septoria tritici; 40 ppm (marked *)) | Test B disease control rating ([1]; 40 ppm (marked *)) | Test E disease control rating (Botrytis cinerea; 40 ppm (marked *)) | Test C disease control rating (Septoria nodorum; 40 ppm (marked *)) | Test A disease control rating ([2]; 40 ppm (marked *)) | Test F disease control rating (Alternaria solani; 40 ppm (marked *)) | Test D disease control rating (Septoria tritici; 200 ppm) [%] | Test B disease control rating ([1]; 200 ppm) [%] | Test E disease control rating (Botrytis cinerea; 200 ppm) [%] | Test C disease control rating (Septoria nodorum; 200 ppm) [%] | Test A disease control rating ([2]; 200 ppm) [%] | Test F disease control rating (Alternaria solani; 200 ppm) [%] |
| --- | --- | --- | --- | --- | --- | --- | --- | --- | --- | --- | --- | --- |
| CN1OC(C)(c2cccnc2)CC1c1ccc(-n2cc(I)cn2)cc1 (stereo not drawn) [Compound 56] | 74* % | 0* % | 94* % | 99* % | 52* % | 91* % | – | – | – | – | – | – |
| COC(=O)c1ccc(C2CC(C)(c3cccnc3)ON2C)cc1 (stereo not drawn) [Compound 39] | – | – | – | – | – | – | 32 | 0 | 90 | 51 | 88 | 0 |
| CN1OC(C)(c2cccnc2)CC1c1ccc(F)c(F)c1 (stereo not drawn) [Compound 82] | – | – | – | – | – | – | 40 | 18 | 0 | 0 | 0 | 0 |
| CN(C)c1ccc(C2CC(C)(c3cccnc3)ON2C)c2ccccc12 (mixture of isomers) [Compound 90] | – | – | – | – | – | – | 35 | 0 | 0 | 0 | 0 | 0 |
| CN1OC(C)(c2cccnc2)CC1c1ccc(Br)cc1F (stereo not drawn) [Compound 96] | – | – | – | – | – | – | 77 | 0 | 0 | 78 | 48 | 0 |
| CN1OC(C)(c2cccnc2)CC1c1cccc(F)c1 (stereo not drawn) [Compound 94] | – | – | – | – | – | – | 4 | 0 | 0 | 0 | 84 | 0 |
| CN1OC(C)(c2cccnc2)CC1c1ccc(-n2ccc(-c3ccc(Br)cc3)n2)cc1 (stereo not drawn) [Compound 49] | 27* % | 0* % | 0* % | 0* % | 61* % | 0* % | – | – | – | – | – | – |
| CN1OC(C)(c2cccnc2)CC1c1ccc(-c2ccnn2CC(F)(F)F)cc1 (mixture of isomers) [Compound 63] | – | – | – | – | – | – | 36 | 0 | 0 | 0 | 21 | 8 |
| CN1OC(C)(c2cccnc2)CC1c1ccc(-n2nc(C(F)(F)F)cc2C(F)(F)F)cc1 (stereo not drawn) [Compound 58] | 91* % | 0* % | 0* % | 0* % | 80* % | 8* % | – | – | – | – | – | – |
| Cc1ccccc1C1CC(C)(c2cccnc2)ON1C (mixture of isomers) [Compound 99] | – | – | – | – | – | – | 18 | 17 | 0 | 0 | 0 | 0 |
| CN1OC(C)(c2cccnc2)CC1c1ccc(Br)cc1Br (stereo not drawn) [Compound 84] | – | – | – | – | – | – | 52 | 27 | 43 | 60 | 94 | 0 |
| COc1ccccc1C1CC(C)(c2cccnc2)ON1C (mixture of isomers) [Compound 100] | – | – | – | – | – | – | 13 | 0 | 26 | 0 | 21 | 8 |
| CN1OC(C)(c2cccnc2)CC1c1ccc(-c2ccncc2)cc1 (stereo not drawn) [Compound 60] | 3* % | 0* % | 29* % | 0* % | 0* % | 0* % | – | – | – | – | – | – |
| Cc1ccn(-c2ccc(C3CC(C)(c4cccnc4)ON3C)cc2)n1 (stereo not drawn) [Compound 43] | 79* % | 0* % | 88* % | 90* % | 0* % | 52* % | – | – | – | – | – | – |
| CN1OC(C)(c2cccnc2)CC1c1cccc(Br)c1 (stereo not drawn) [Compound 64] | – | – | – | – | – | – | 45 | 0 | 0 | 0 | 64 | 0 |
| CN1OC(C)(c2cccnc2)CC1c1cccc(Br)c1 (stereo not drawn) [Compound 67] | – | – | – | – | – | – | 8 | 0 | 34 | 0 | 47 | 0 |
| CN1OC(C)(c2cccnc2)CC1c1ccc(-c2cccs2)cc1 (stereo not drawn) [Compound 55] | 93* % | 0* % | 97* % | 84* % | 61* % | 85* % | – | – | – | – | – | – |
| CN1OC(C)(c2cccnc2)CC1c1ccc(-n2nc(C(F)(F)F)cc2C(F)(F)F)cc1 (stereo not drawn) [Compound 59] | 2* % | 0* % | 0* % | 0* % | 52* % | 0* % | – | – | – | – | – | – |
| CN1OC(C)(c2cccnc2)CC1c1cccc2c1OC(F)(F)O2 (mixture of isomers) [Compound 89] | – | – | – | – | – | – | 36 | 0 | 0 | 0 | 0 | 16 |
| CN1OC(c2cccnc2)CC1c1ccc(-n2ccc(C(F)(F)F)n2)cc1 (stereo not drawn) [Compound 72] | 93* % | 100* % | 96* % | 100* % | 99* % | 94* % | – | – | – | – | – | – |
| CN1OC(C)(c2cccnc2)CC1c1ccccc1Br (stereo not drawn) [Compound 65] | – | – | – | – | – | – | 5 | 0 | 0 | 0 | 0 | 0 |
| CN1OC(C)(c2cccnc2)CC1c1ccc(F)c(F)c1 (stereo not drawn) [Compound 81] | – | – | – | – | – | – | 15 | 0 | 78 | 0 | 56 | 0 |
| CN1OC(C)(c2cccnc2)CC1c1ccccc1Cl (stereo not drawn) [Compound 93] | – | – | – | – | – | – | 3 | 0 | 0 | 0 | 0 | 0 |
| Cc1cc(C)n(-c2ccc(C3CC(C)(c4cccnc4)ON3C)cc2)n1 (stereo not drawn) [Compound 50] | 73* % | 0* % | 84* % | 87* % | 0* % | 0* % | – | – | – | – | – | – |
